Source: patent US4416884A, “Piperazinylbenzoheterocyclic compounds” (Otsuka Pharmaceutical Co., Ltd., priority 1978, dated 1983)
In brackets after ≈: the same amount, converted by molar mass. Read-outs that look alike come from different tables or passages of the source.

Legend:
[1] = tested on: Bacillus subtilis PCI 219; assay: antimicrobial activity, serial dilution method on agar plate; type: cell-based
Outline: (§1)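 MIC (mcg/ml) determined by agar plate serial dilution on Heart Infusion agar. Inocula prepared at 1×10^8 cells/ml (O.D. 660 mμ 0.07–0.16) and at 1×10^6 cells/ml by dilution.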

[2] = tested on: Escherichia Coli NIHJ JC-2 (IFO 12734); assay: as above; type: cell-based; settings: Escherichia coli, read-out: Minimum Inhibitory Concentration
Outline: as §1

Escherichia Coli NIHJ = assay: as above; type: cell-based
Outline: as §1

[3] = tested on: Klebsiella pneumoniae ST-101; assay: as above; type: cell-based
Outline: as §1

Klebsiella pneumoniae = assay: as above; type: cell-based
Outline: as §1

[4] = tested on: Proteus morganii IID Kono; assay: as above; type: cell-based; settings: Morganella morganii
Outline: as §1

Proteus rettgeri NIH 96 = assay: as above; type: cell-based; settings: Providencia rettgeri
Outline: as §1

[5] = tested on: Proteus vulgaris IID OX-19; assay: as above; type: cell-based; settings: read-out: Minimum Inhibitory Concentration
Outline: as §1

[6] = tested on: Pseudomonas aeruginosa ATCC 10145; assay: as above; type: cell-based
Outline: as §1

[7] = tested on: Salmonella typhi 0-901 (NCTC 8393); assay: as above; type: cell-based; settings: Salmonella enterica, read-out: Minimum Inhibitory Concentration
Outline: as §1

[8] = tested on: Serattia marcescens IFO 12648; assay: as above; type: cell-based
Outline: as §1

Shigella Sonnei EW 33 = assay: as above; type: cell-based; settings: read-out: Minimum Inhibitory Concentration
Outline: as §1

[9] = tested on: Staphylococcus aureus FDA 209 P; assay: as above; type: cell-based
Outline: as §1

[10] = tested on: Yersinia enterocolitica 0-3; assay: as above; type: cell-based
Outline: as §1

[11] = tested on: Aeromonas hydrophila IFO 12658; assay: antimicrobial activity on bacteria which cause infectious diseases in fish; type: cell-based
Experimental: (§2) The antimicrobial activity of the following test compounds on various test organisms listed below was determined by the serial dilution method on agar plate (Heart Infusion agar produced by Difco Co.) (see CHEMOTHERAPY 22, pp. 1126-1128 (1974)), and the minimum inhibitory concentrations (mcg/ml) obtained are shown in Table 1 below.
(§3) A sample of each test organism was prepared so that the population of the organism was 1×10^8 cells/ml (O.D. 660 mμ=0.07 to 0.16) and 1×10^6 cells/ml (which was obtained by diluting the above 1×10^8 cells/ml preparation).
(§4) In the same manner as above, the antimicrobial activity of the following compounds on various test organisms which cause infectious diseases in fish was determined.

[12] = tested on: Aeromonas hydrophila IFO 12981; assay: as above; type: cell-based
Experimental: as §2, §3, §4

[13] = tested on: Aeromonas salmonicida IFO 12659; assay: as above; type: cell-based
Experimental: as §2, §3, §4

[14] = tested on: Aeromonas salmonicida IFO 12718; assay: as above; type: cell-based
Experimental: as §2, §3, §4

[15] = tested on: Pseudomonas fluorescens IFO 12180; assay: as above; type: cell-based; settings: IFO12180, read-out: Minimum Inhibitory Concentration
Experimental: as §2, §3, §4

[16] = tested on: Pseudomonas fluorescens IFO 12568; assay: as above; type: cell-based
Experimental: as §2, §3, §4

[17] = tested on: Vibrio anguillarum IFO 12710; assay: as above; type: cell-based
Experimental: as §2, §3, §4

[18] = tested on: Vibrio anguillarum IFO 13266; assay: as above; type: cell-based
Experimental: as §2, §3, §4

[19] = acute toxicity by intravenous administration in mice; settings: mouse, in vivo, i.v., mice not fed for 12 hours
Experimental: The acute toxicity of the compounds of this invention having the formula (I) was determined by intravenous administration (i.v.) in mice which had not been fed for 12 hours prior to the test. LD50 values (50% lethal dose) obtained are set forth below:
In the same manner as above, LD50 values were determined for all the other test compounds and the LD50 values obtained were at least 500 mg/kg.

[20] = read-out: Minimum Inhibitory Concentration, inoculum 1 × 10^6 cells/ml
[21] = read-out: Minimum Inhibitory Concentration, inoculum 1 × 10^8 cells/ml

## O=C(O)c1cn2c3c(c(N4CCNCC4)ccc3c1=O)CCC2 [B]
[1]; PCI219, read-out: Minimum Inhibitory Concentration, inoculum 1 × 10^6 cells/ml
  MIC: 12.5 µg/mL (≈ 39.9 µM)
[1]; PCI219, read-out: Minimum Inhibitory Concentration, inoculum 1 × 10^8 cells/ml
  MIC: 12.5 µg/mL (≈ 39.9 µM)
[2]
  MIC: 3.1 µg/mL (≈ 9.89 µM)
Escherichia Coli NIHJ; [20]
  MIC: 0.8 µg/mL (≈ 2.55 µM)
Escherichia Coli NIHJ; [21]
  MIC: 1.6 µg/mL (≈ 5.11 µM)
[3]; ST101, read-out: Minimum Inhibitory Concentration, inoculum 1 × 10^6 cells/ml
  MIC: 1.6 µg/mL (≈ 5.11 µM)
[3]; ST101, read-out: Minimum Inhibitory Concentration, inoculum 1 × 10^8 cells/ml
  MIC: 1.6 µg/mL (≈ 5.11 µM)
Klebsiella pneumoniae; [20]
  MIC: 1.6 µg/mL (≈ 5.11 µM)
Klebsiella pneumoniae; [21]
  MIC: 6.3 µg/mL (≈ 20.1 µM)
[4]; [20]
  MIC: 6.3 µg/mL (≈ 20.1 µM)
[4]; [21]
  MIC: 12.5 µg/mL (≈ 39.9 µM)
Proteus rettgeri NIH 96; NIH96, read-out: Minimum Inhibitory Concentration, inoculum 1 × 10^6 cells/ml
  MIC: 1.6 µg/mL (≈ 5.11 µM)
Proteus rettgeri NIH 96; NIH96, read-out: Minimum Inhibitory Concentration, inoculum 1 × 10^8 cells/ml
  MIC: 1.6 µg/mL (≈ 5.11 µM)
[5]; IIDOX19, inoculum 1 × 10^6 cells/ml
  MIC: 1.6 µg/mL (≈ 5.11 µM)
[5]; IIDOX19, inoculum 1 × 10^8 cells/ml
  MIC: 12.5 µg/mL (≈ 39.9 µM)
[6]; ATCC10145, read-out: Minimum Inhibitory Concentration, inoculum 1 × 10^6 cells/ml
  MIC: 6.3 µg/mL (≈ 20.1 µM)
[6]; ATCC10145, read-out: Minimum Inhibitory Concentration, inoculum 1 × 10^8 cells/ml
  MIC: 12.5 µg/mL (≈ 39.9 µM)
[7]; inoculum 1 × 10^6 cells/ml
  MIC: 0.8 µg/mL (≈ 2.55 µM)
[7]; inoculum 1 × 10^8 cells/ml
  MIC: 0.8 µg/mL (≈ 2.55 µM)
[8]; [20]
  MIC: 3.1 µg/mL (≈ 9.89 µM)
[8]; [21]
  MIC: 6.3 µg/mL (≈ 20.1 µM)
Shigella Sonnei EW 33; inoculum 1 × 10^6 cells/ml
  MIC: 1.6 µg/mL (≈ 5.11 µM)
Shigella Sonnei EW 33; inoculum 1 × 10^8 cells/ml
  MIC: 1.6 µg/mL (≈ 5.11 µM)
[9]; FDA209, read-out: Minimum Inhibitory Concentration, inoculum 1 × 10^6 cells/ml
  MIC: 12.5 µg/mL (≈ 39.9 µM)
[9]; FDA209, read-out: Minimum Inhibitory Concentration, inoculum 1 × 10^8 cells/ml
  MIC: 2.5 µg/mL (≈ 7.98 µM)
[10]; Yersinia enterocolitica, 03, read-out: Minimum Inhibitory Concentration, inoculum 1 × 10^6 cells/ml
  MIC: 3.1 µg/mL (≈ 9.89 µM)
[10]; Yersinia enterocolitica, 03, read-out: Minimum Inhibitory Concentration, inoculum 1 × 10^8 cells/ml
  MIC: 12.5 µg/mL (≈ 39.9 µM)
[11]; IFO12658, inoculum 10^6, read-out: Minimum Inhibitory Concentration
  MIC: 0.8 µg/mL (≈ 2.55 µM)
[11]; IFO12658, inoculum 10^8, read-out: Minimum Inhibitory Concentration
  MIC: 1.6 µg/mL (≈ 5.11 µM)
[12]; IFO12981, inoculum 10^6, read-out: Minimum Inhibitory Concentration
  MIC: 0.4 µg/mL (≈ 1.28 µM)
[12]; IFO12981, inoculum 10^8, read-out: Minimum Inhibitory Concentration
  MIC: 0.8 µg/mL (≈ 2.55 µM)
[13]; IFO12659, inoculum 10^6, read-out: Minimum Inhibitory Concentration
  MIC: 0.8 µg/mL (≈ 2.55 µM)
[13]; IFO12659, inoculum 10^8, read-out: Minimum Inhibitory Concentration
  MIC: 1.6 µg/mL (≈ 5.11 µM)
[14]; IFO12718, inoculum 10^6, read-out: Minimum Inhibitory Concentration
  MIC: 0.4 µg/mL (≈ 1.28 µM)
[14]; IFO12718, inoculum 10^8, read-out: Minimum Inhibitory Concentration
  MIC: 0.8 µg/mL (≈ 2.55 µM)
[15]
  MIC: 6.3 µg/mL (≈ 20.1 µM)
[16]; IFO12568, read-out: Minimum Inhibitory Concentration, inoculum 10^6
  MIC: 25 µg/mL (≈ 79.8 µM)
[16]; IFO12568, read-out: Minimum Inhibitory Concentration, inoculum 10^8
  MIC: 50 µg/mL (≈ 160 µM)
[17]; IFO12710, read-out: Minimum Inhibitory Concentration, inoculum 10^6
  MIC: 3.1 µg/mL (≈ 9.89 µM)
[17]; IFO12710, read-out: Minimum Inhibitory Concentration, inoculum 10^8
  MIC: 12.5 µg/mL (≈ 39.9 µM)
[18]; IFO13266, read-out: Minimum Inhibitory Concentration, inoculum 10^6
  MIC: 0.4 µg/mL (≈ 1.28 µM)
[18]; IFO13266, read-out: Minimum Inhibitory Concentration, inoculum 10^8
  MIC: 0.8 µg/mL (≈ 2.55 µM)
[19]
  LD50: 1100 mg/kg
